Key:
Conditions in all cases: 48 h
NOMO1 [1] = assay: cell viability relative to DMSO control; higher = less cytotoxic
In short: (§1)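 Viability values are per-plate percentages of DMSO wells, with background from cell-free wells. Library compounds in DMSO were pin-dosed, in an 11-point threefold series from 47 μM to 0.79 nM, onto NOMO1 or SEM (500 cells/well) or P12-Ichikawa (1000 cells/well) leukemia cells in 1536-well plates (5 μl). Those cells had been adapted for at least four passages in each medium, and CellTiter-Glo One luminescence was read after 48 h at 37°C.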

P12-Ichikawa [2] = assay: as above
In short: as §1

SEM cells [3] = assay: as above
In short: as §1

NOMO1 [4] = assay: AUC of viability dose-response curve (% viability x log10 dose units); higher = less sensitive
In short: (§2)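 Leukemia cells adapted to each medium were seeded in 1536-well plates (500 or 1000 cells/well) and given library compounds in DMSO for 48 h at 37°C. The 11 threefold doses spanned 47 μM to 0.79 nM, and CellTiter-Glo One luminescence was normalised per plate to DMSO and cell-free wells before four-parameter log-logistic fitting on log10 dose. Area under the curve was integrated with the trapezoidal rule, scaling curves above full viability and removing curves that failed quality control.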

P12-Ichikawa [5] = assay: as above
In short: as §2

SEM cells [6] = assay: as above
In short: as §2

COc1cc2c(cc1OC)C1CC(=O)C(CC(C)C)CN1CC2 (stereo not drawn)
cell viability [%]
Conditions	NOMO1 [1]	P12-Ichikawa [2]	SEM cells [3]
HPLM + 10% dialyzed FBS, 0.000781 µM	–	122	84.5
HPLM + 10% dialyzed FBS, 0.00234 µM	–	122	116
HPLM + 10% dialyzed FBS, 0.00702 µM	–	116	99.6
HPLM + 10% dialyzed FBS, 0.0211 µM	–	118	107
HPLM + 10% dialyzed FBS, 0.0632 µM	–	113	98.4
HPLM + 10% dialyzed FBS, 0.19 µM	–	127	100
HPLM + 10% dialyzed FBS, 0.569 µM	–	117	118
HPLM + 10% dialyzed FBS, 1.71 µM	–	122	110
HPLM + 10% dialyzed FBS, 5.12 µM	–	116	112
HPLM + 10% dialyzed FBS, 15.4 µM	–	114	103
HPLM + 10% dialyzed FBS, 46.1 µM	–	106	96.5
RPMI 5 mM glucose + 10% FBS, 0.000781 µM	116	–	116
RPMI 5 mM glucose + 10% FBS, 0.00234 µM	106	–	114
RPMI 5 mM glucose + 10% FBS, 0.00702 µM	106	–	110
RPMI 5 mM glucose + 10% FBS, 0.0211 µM	104	–	118
RPMI 5 mM glucose + 10% FBS, 0.0632 µM	134	–	103
RPMI 5 mM glucose + 10% FBS, 0.19 µM	117	–	110
RPMI 5 mM glucose + 10% FBS, 0.569 µM	116	–	114
RPMI 5 mM glucose + 10% FBS, 1.71 µM	104	–	118
RPMI 5 mM glucose + 10% FBS, 5.12 µM	113	–	118
RPMI 5 mM glucose + 10% FBS, 15.4 µM	113	–	116
RPMI 5 mM glucose + 10% FBS, 46.1 µM	103	–	109
RPMI 5 mM glucose + 10% dialyzed FBS, 0.000781 µM	117	117	120
RPMI 5 mM glucose + 10% dialyzed FBS, 0.00234 µM	133	119	140
RPMI 5 mM glucose + 10% dialyzed FBS, 0.00702 µM	109	121	113
RPMI 5 mM glucose + 10% dialyzed FBS, 0.0211 µM	115	124	117
RPMI 5 mM glucose + 10% dialyzed FBS, 0.0632 µM	148	122	97.1
RPMI 5 mM glucose + 10% dialyzed FBS, 0.19 µM	124	125	129
RPMI 5 mM glucose + 10% dialyzed FBS, 0.569 µM	128	118	111
RPMI 5 mM glucose + 10% dialyzed FBS, 1.71 µM	121	125	129
RPMI 5 mM glucose + 10% dialyzed FBS, 5.12 µM	115	109	124
RPMI 5 mM glucose + 10% dialyzed FBS, 15.4 µM	110	115	119
RPMI 5 mM glucose + 10% dialyzed FBS, 46.1 µM	125	102	103

AUC of viability dose-response curve
Conditions	NOMO1 [4]	P12-Ichikawa [5]	SEM cells [6]
HPLM + 10% dialyzed FBS	448	459	471
RPMI 5 mM glucose + 10% FBS	470	459	476
RPMI 5 mM glucose + 10% dialyzed FBS	469	466	459

CC(=O)O[C@H]1C[C@@H]2CC[C@@H]3[C@H](CC[C@@]4(C)[C@H]3C[C@H]([N+]3(C)CCCCC3)[C@@H]4OC(C)=O)[C@@]2(C)C[C@@H]1[N+]1(C)CCCCC1
Conditions	cell viability [%]
P12-Ichikawa [2], RPMI 5 mM glucose + 10% dialyzed FBS, 0.000781 µM	123
P12-Ichikawa [2], RPMI 5 mM glucose + 10% dialyzed FBS, 0.00234 µM	134
P12-Ichikawa [2], RPMI 5 mM glucose + 10% dialyzed FBS, 0.00702 µM	121
P12-Ichikawa [2], RPMI 5 mM glucose + 10% dialyzed FBS, 0.0211 µM	124
P12-Ichikawa [2], RPMI 5 mM glucose + 10% dialyzed FBS, 0.0632 µM	132
P12-Ichikawa [2], RPMI 5 mM glucose + 10% dialyzed FBS, 0.19 µM	125
P12-Ichikawa [2], RPMI 5 mM glucose + 10% dialyzed FBS, 0.569 µM	127
P12-Ichikawa [2], RPMI 5 mM glucose + 10% dialyzed FBS, 1.71 µM	117
P12-Ichikawa [2], RPMI 5 mM glucose + 10% dialyzed FBS, 5.12 µM	125
P12-Ichikawa [2], RPMI 5 mM glucose + 10% dialyzed FBS, 15.4 µM	117
P12-Ichikawa [2], RPMI 5 mM glucose + 10% dialyzed FBS, 46.1 µM	113
SEM cells [3], HPLM + 10% dialyzed FBS, 0.000781 µM	110
SEM cells [3], HPLM + 10% dialyzed FBS, 0.00234 µM	110
SEM cells [3], HPLM + 10% dialyzed FBS, 0.00702 µM	119
SEM cells [3], HPLM + 10% dialyzed FBS, 0.0211 µM	126
SEM cells [3], HPLM + 10% dialyzed FBS, 0.0632 µM	108
SEM cells [3], HPLM + 10% dialyzed FBS, 0.19 µM	108
SEM cells [3], HPLM + 10% dialyzed FBS, 0.569 µM	115
SEM cells [3], HPLM + 10% dialyzed FBS, 1.71 µM	121
SEM cells [3], HPLM + 10% dialyzed FBS, 5.12 µM	109
SEM cells [3], HPLM + 10% dialyzed FBS, 15.4 µM	110
SEM cells [3], HPLM + 10% dialyzed FBS, 46.1 µM	117

AUC of viability dose-response curve
Conditions	NOMO1 [4]	P12-Ichikawa [5]	SEM cells [6]
HPLM + 10% dialyzed FBS	459	464	477
RPMI 5 mM glucose + 10% FBS	466	457	438
RPMI 5 mM glucose + 10% dialyzed FBS	472	465	465

CN(Cc1cnc2nc(N)nc(N)c2n1)c1ccc(C(=O)N[C@@H](CCC(=O)O)C(=O)O)cc1
Conditions	cell viability [%]
NOMO1 [1], RPMI 5 mM glucose + 10% FBS, 0.000781 µM	116
NOMO1 [1], RPMI 5 mM glucose + 10% FBS, 0.00234 µM	125
NOMO1 [1], RPMI 5 mM glucose + 10% FBS, 0.00702 µM	123
NOMO1 [1], RPMI 5 mM glucose + 10% FBS, 0.0211 µM	135
NOMO1 [1], RPMI 5 mM glucose + 10% FBS, 0.0632 µM	121
NOMO1 [1], RPMI 5 mM glucose + 10% FBS, 0.19 µM	136
NOMO1 [1], RPMI 5 mM glucose + 10% FBS, 0.569 µM	107
NOMO1 [1], RPMI 5 mM glucose + 10% FBS, 1.71 µM	104
NOMO1 [1], RPMI 5 mM glucose + 10% FBS, 5.12 µM	73.1
NOMO1 [1], RPMI 5 mM glucose + 10% FBS, 15.4 µM	26.7
NOMO1 [1], RPMI 5 mM glucose + 10% FBS, 46.1 µM	24.4
SEM cells [3], HPLM + 10% dialyzed FBS, 0.000781 µM	115
SEM cells [3], HPLM + 10% dialyzed FBS, 0.00234 µM	141
SEM cells [3], HPLM + 10% dialyzed FBS, 0.00702 µM	122
SEM cells [3], HPLM + 10% dialyzed FBS, 0.0211 µM	133
SEM cells [3], HPLM + 10% dialyzed FBS, 0.0632 µM	119
SEM cells [3], HPLM + 10% dialyzed FBS, 0.19 µM	53.5
SEM cells [3], HPLM + 10% dialyzed FBS, 0.569 µM	43
SEM cells [3], HPLM + 10% dialyzed FBS, 1.71 µM	37
SEM cells [3], HPLM + 10% dialyzed FBS, 5.12 µM	25.7
SEM cells [3], HPLM + 10% dialyzed FBS, 15.4 µM	18
SEM cells [3], HPLM + 10% dialyzed FBS, 46.1 µM	15.2

AUC of viability dose-response curve
Conditions	NOMO1 [4]	P12-Ichikawa [5]	SEM cells [6]
HPLM + 10% dialyzed FBS	304	245	277
RPMI 5 mM glucose + 10% FBS	390	277	328
RPMI 5 mM glucose + 10% dialyzed FBS	278	258	249

Source: the supplement of paper PMC11451515
